Test results taken from patent US6420397B1, “Heteroaryl protease inhibitors and diagnostic imaging agents” (3-Dimensional Pharmaceuticals, Inc., priority 1999, dated 2002).

Columns and labels:
Human α-thrombin = molecular target: T1, Human α-thrombin (Homo sapiens, UniProt P00734); experiment: In vitro inhibition of purified enzymes: thrombin Ki determination (p-nitroanilide substrate hydrolysis); assay type: biochemical; conditions: substrate N-succinyl-Ala-Ala-Pro-Arg-p-nitroanilide, 37° C., pH 7.5
T1 construct: Purified human α-thrombin was diluted into assay buffer; purchased Enzyme Research Laboratories (South Bend, Indiana)
Source text: (§1) Reagents: All buffer salts were obtained from Sigma Chemical Company (St. Louis, Mo.), and were of the highest purity available. The enzyme substrate N-benzoyl-Ile-Glu-Gly-Arg-p-nitroanilide hydrochloride (Sigma B2291) was obtained from Sigma. N-succinyl-Ala-Ala-Pro-Arg-p-nitroanilide (BACHEM L-1720) was obtained from BACHEM (King of Prussia, Pa.). Human α-thrombin and human factor Xa were obtained from Enzyme Research Laboratories (South Bend, Indiana).
Ki Determinations: All assays are based on the ability of the test compound to inhibit the enzyme catalyzed hydrolysis of a peptide p-nitroanilide substrate. In a typical Ki determination, substrate is prepared in DMSO, and diluted into an assay buffer consisting of 50 mM HEPES, 200 mM NaCl, pH 7.5. The final concentrations for each of the substrates is listed below. In general, substrate concentrations are lower than the experimentally determined value for Km. Test compounds are prepared as a 1.0 mg/ml solution in DMSO. Dilutions are prepared in DMSO yielding 8 final concentrations encompassing a 200 fold concentration range. Enzyme solutions are prepared at the concentrations listed below in assay buffer.
(§2) In a typical Ki determnination, into each well of a 96 well plate is pipetted […] of substrate solution, […] of test compound solution, and the plate allowed to thermally equilibrate at 37° C. in a Molecular Devices plate reader for >15 minutes. Reactions were initiated by the addition of a […] aliquot of enzyme and the absorbance increase at 405 nm is recorded for 15 minutes. Data corresponding to less than 10% of the total substrate hydrolysis were used in the calculations. The ratio of the velocity (rate of change in absorbance as a function of time) for a sample containing no test compound is divided by the velocity of a sample containing test compound, and is plotted as a function of test compound concentration. The data are fit to a linear regression, and the value of the slope of the line calculated. The inverse of the slope is the experimentally determined Ki value.
Thrombin: Thrombin activity was assessed as the ability to hydrolyze the substrate N-succinyl-Ala-Ala-Pro-Arg-p-nitroanilide. Substrate solutions were prepared at a concentration of […] in assay buffer. Final DMSO concentration was 4.3%. Purified human α-thrombin was diluted into assay buffer to a concentration of 15 nM. Final reagent concentrations were: [thrombin]=0.5 nM, [substrate N-succinyl-Ala-Ala-Pro-Arg-p-nitroanilide]=32 mM.

human factor Xa = molecular target: T2, human factor Xa (Homo sapiens, UniProt P00742); experiment: In vitro inhibition of purified enzymes: Factor Xa (p-nitroanilide substrate hydrolysis); assay type: biochemical; conditions: read-out: Factor Xa % inhibition @ conc.
T2 construct: purchased Enzyme Research Laboratories (South Bend, Indiana)
Source text: as §1
Ki Determinations: All assays are based on the ability of the test compound to inhibit the enzyme catalyzed hydrolysis of a peptide p-nitroanilide substrate. […] In general, substrate concentrations are lower than the experimentally determined value for Km. […]
as §2, with “Data corresponding to less than 10% of the total substrate hydrolysis were used in the calculations.” left out, “The data are fit to a linear regression, and the value of the slope of the line calculated. The inverse of the slope is the experimentally determined Ki value.” left out

T2 sequence (P00742 235-488 limits assumed): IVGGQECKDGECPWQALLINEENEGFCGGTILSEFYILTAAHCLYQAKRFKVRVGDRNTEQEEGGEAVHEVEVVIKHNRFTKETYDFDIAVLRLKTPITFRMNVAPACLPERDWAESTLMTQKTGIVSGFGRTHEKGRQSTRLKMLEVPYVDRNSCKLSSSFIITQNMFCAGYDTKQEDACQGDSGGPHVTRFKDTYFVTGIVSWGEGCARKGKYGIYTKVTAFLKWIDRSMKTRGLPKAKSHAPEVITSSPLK
T2 sequence (P00742 41-179 limits assumed): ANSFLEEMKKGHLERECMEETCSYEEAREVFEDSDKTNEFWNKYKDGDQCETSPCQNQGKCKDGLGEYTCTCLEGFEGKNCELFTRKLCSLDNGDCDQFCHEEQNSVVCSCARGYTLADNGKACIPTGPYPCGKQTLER

Ki (Human α-thrombin)	inhibition at 20 µM (human factor Xa; @ 20 μM)	inhibition at 13 µM (human factor Xa; @ 13 μM)	SMILES
14 nM	16%	–	Cc1ccc(NS(=O)(=O)Cc2ccccc2I)c(=O)n1CC(=O)N[C@@H](CCONC(=N)N)C(=O)c1nccs1 [Example 1, N-{(1S)-1-[2-(Amidinoaminooxy)ethyl]-2-oxo-2-(1,3-thiazol-2-yl)ethyl}-2-[3-({[(2-iodophenyl)methyl]sulfonyl}amino)-6-methyl-2-oxohydropyridyl]acetamide]
75 nM	–	51%	Cc1ccc(NS(=O)(=O)Cc2ccccc2I)c(=O)n1CC(=O)N[C@@H](CCONC(=N)N)C(=O)c1nc2ccccc2s1 [Example 2, N-{(1S)-1-[2-(Amidinoaminooxy)ethyl]-2-benzothiazol-2-yl-2-oxoethyl}-2-[3-({[(2-iodophenyl)methyl]sulfonyl}amino)-6-methyl-2-oxohydropyridyl]acetamide]
45 nM	–	–	Cc1ccc(NS(=O)(=O)c2cccc(I)c2)c(=O)n1CC(=O)N[C@@H](CCONC(=N)N)C(=O)c1nccs1 [Example 3, N-{(1S)-1-[2-(Amidinoaminooxy)ethyl]-2-oxo-2-(1,3-thiazol-2-yl)ethyl}-2-(3-{[(3-iodophettyl)sulfonyl]amino}-6-methyl-2-oxohydropyridyl)acetamide]
17 nM	–	–	Cc1ccc(NS(=O)(=O)c2cccc(I)c2)c(=O)n1CC(=O)N[C@@H](CCONC(=N)N)C(=O)c1nc2ccccc2s1 [Example 4, N-{(1S)-1-[2-(Amidinoaminooxy)ethyl]-2-benzothiazol-2-yl-2-oxoethyl}-2-(3-{[(3-iodopheityl)sulfonyl]amino}-6-methyl-2-oxohydropyridyl)acetamide]
